According to patent publication US9610279B2, “Method for induction of a heat shock protein, anti-stress or regulation of an autonomic nerve” (AMINO UP CHEMICAL CO., LTD., priority 2011, dated 2017):

System: HSP70
Assay: HSP70 protein expression inducing activity in HeLa cells (ELISA)
Assay type: cell-based, human
Conditions: final concentration 1 mg/mL, 24 hours
Protocol: The HSP70 inducing activity of the samples 1, 3, and 4 which were the same ones as used in Example 4 was evaluated by measuring an HSP70 protein expression level. In the same manner as described in Example 4, HeLa cells that had been suspended in DMEM (added with 10% FBS) were seeded in a 12-well plate (100,000 cells/mL/well). […] A part of the cells were then scraped off with a cell scraper, collected into a 1.5 mL sample tube, and subjected to HSP70 protein quantification and total protein quantification. The quantification of HSP70 protein was carried out using HSP70 ELISA kit (product name) (manufactured by Enzo); and the quantification of total protein was carried out using Micro BCA Protein Assay Reagent kit (product name) (manufactured by PIERCE Biotechnology). With regard to the remaining cells, an effect on cell proliferation was evaluated by 3-(4,5-dimethyl […])-2,5-diphenyltetrazalium bromide (MTT) method. […]

Structure (SMILES): O=Cc1ccc(CO)o1 [sample 1, 5-Hydroxymethyl-2-furaldehyde]
- increased HSP70 protein expression as compared with the control: about 1.3 fold
